Experiments:
Experiment in all cases: relative viability (nuclei count vs DMSO), 5 days (fraction); higher = more cells survive
ABC-1 = tested on: ABC-1
Procedure, shortened: (§1)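 Relative viability was taken as the ratio of nuclei in treated wells to nuclei in vehicle wells. Lung cancer cell lines in 1536-well plates received compounds by pin tool one day after seeding, either one drug alone or a fixed anchor-drug dose plus five library-drug doses (not always all listed) in √10 steps. Nuclei were counted on 4× images after 5 days of treatment, and values are medians of duplicate plates.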

CAL-12T = tested on: CAL-12T
Procedure, shortened: as §1

ChaGo-K-1 = tested on: ChaGo-K-1
Procedure, shortened: as §1

EPLC-272H = tested on: EPLC-272H
Procedure, shortened: as §1

HCC-366 = tested on: HCC-366
Procedure, shortened: as §1

HCC-78 = tested on: HCC-78
Procedure, shortened: as §1

LC-2-ad = tested on: LC-2-ad
Procedure, shortened: as §1

LOU-NH91 = tested on: LOU-NH91
Procedure, shortened: as §1

LU99A = tested on: LU99A
Procedure, shortened: as §1

NCI-H1395 = tested on: NCI-H1395
Procedure, shortened: as §1

NCI-H1651 = tested on: NCI-H1651
Procedure, shortened: as §1

NCI-H1734 = tested on: NCI-H1734
Procedure, shortened: as §1

NCI-H1755 = tested on: NCI-H1755
Procedure, shortened: as §1

NCI-H1793 = tested on: NCI-H1793
Procedure, shortened: as §1

NCI-H1944 = tested on: NCI-H1944
Procedure, shortened: as §1

NCI-H2087 = tested on: NCI-H2087
Procedure, shortened: as §1

NCI-H2170 = tested on: NCI-H2170
Procedure, shortened: as §1

NCI-H2228 = tested on: NCI-H2228
Procedure, shortened: as §1

NCI-H2405 = tested on: NCI-H2405
Procedure, shortened: as §1

NCI-H3122 = tested on: NCI-H3122
Procedure, shortened: as §1

NCI-H460 = tested on: NCI-H460
Procedure, shortened: as §1

PC-3 [JPC-3] = tested on: PC-3 [JPC-3]
Procedure, shortened: as §1

RERF-LC-KJ = tested on: RERF-LC-KJ
Procedure, shortened: as §1

UMC-11 = tested on: UMC-11
Procedure, shortened: as §1

`C[C@@H]1CN(CC(=O)Nc2ccc3c(c2)Cc2cccc(-c4cc(=O)cc(N5CCOCC5)o4)c2S3)C[C@H](C)O1` + N=C(N)NC(=N)NCCc1ccccc1 [Phenformin] (partner 250 µM) showed a relative viability (ABC-1; first compound 0.1265 µM) of 0.256, a relative viability (ABC-1; first compound 0.4 µM) of 0.273 and a relative viability (ABC-1; first compound 4 µM) of 0.236. The relative viability (CAL-12T; first compound 0.04 µM) was 0.712, the relative viability (CAL-12T; first compound 0.1265 µM) was 0.505 and the relative viability (CAL-12T; first compound 0.4 µM) was 0.598. The relative viability (CAL-12T; first compound 4 µM) was 0.425, the relative viability (ChaGo-K-1; first compound 0.04 µM) was 0.48 and the relative viability (ChaGo-K-1; first compound 0.1265 µM) was 0.45. The relative viability (ChaGo-K-1; first compound 0.4 µM) was 0.474, the relative viability (ChaGo-K-1; first compound 4 µM) was 0.411 and the relative viability (EPLC-272H; first compound 0.04 µM) was 0.278. The relative viability (EPLC-272H; first compound 0.1265 µM) was 0.274, the relative viability (EPLC-272H; first compound 0.4 µM) was 0.307 and the relative viability (EPLC-272H; first compound 4 µM) was 0.271. The relative viability (HCC-366; first compound 0.04 µM) was 0.659, the relative viability (HCC-366; first compound 0.1265 µM) was 0.656 and the relative viability (HCC-366; first compound 0.4 µM) was 0.634. It also gave a relative viability (HCC-366; first compound 4 µM) of 0.681, a relative viability (HCC-78; first compound 0.04 µM) of 0.656 and a relative viability (HCC-78; first compound 0.1265 µM) of 0.661. For the same compound, the relative viability (HCC-78; first compound 0.4 µM) was 0.658, the relative viability (HCC-78; first compound 4 µM) was 0.619 and the relative viability (LC-2-ad; first compound 0.04 µM) was 0.695. For the same compound, the relative viability (LC-2-ad; first compound 0.1265 µM) was 0.593, the relative viability (LC-2-ad; first compound 0.4 µM) was 0.587 and the relative viability (LC-2-ad; first compound 4 µM) was 0.662. It also gave a relative viability (LOU-NH91; first compound 0.04 µM) of 0.792, a relative viability (LOU-NH91; first compound 0.1265 µM) of 0.691 and a relative viability (LOU-NH91; first compound 0.4 µM) of 0.696. For the same compound, the relative viability (LOU-NH91; first compound 4 µM) was 0.667, the relative viability (LU99A; first compound 0.04 µM) was 0.742 and the relative viability (LU99A; first compound 0.1265 µM) was 0.985. It also gave a relative viability (LU99A; first compound 0.4 µM) of 1.02, a relative viability (LU99A; first compound 4 µM) of 0.916 and a relative viability (NCI-H1395; first compound 0.04 µM) of 0.495. For the same compound, the relative viability (NCI-H1395; first compound 0.1265 µM) was 0.456, the relative viability (NCI-H1395; first compound 0.4 µM) was 0.417 and the relative viability (NCI-H1395; first compound 4 µM) was 0.405. It also gave a relative viability (NCI-H1651; first compound 0.04 µM) of 0.334, a relative viability (NCI-H1651; first compound 0.1265 µM) of 0.321 and a relative viability (NCI-H1651; first compound 0.4 µM) of 0.36. It also gave a relative viability (NCI-H1651; first compound 4 µM) of 0.313, a relative viability (NCI-H1734; first compound 0.04 µM) of 0.429 and a relative viability (NCI-H1734; first compound 0.1265 µM) of 0.392. The relative viability (NCI-H1734; first compound 0.4 µM) was 0.366, the relative viability (NCI-H1734; first compound 4 µM) was 0.399 and the relative viability (NCI-H1755; first compound 0.04 µM) was 0.611. The relative viability (NCI-H1755; first compound 0.1265 µM) was 0.603, the relative viability (NCI-H1755; first compound 0.4 µM) was 0.698 and the relative viability (NCI-H1755; first compound 4 µM) was 0.586. It also gave a relative viability (NCI-H1793; first compound 0.04 µM) of 0.347, a relative viability (NCI-H1793; first compound 0.1265 µM) of 0.339 and a relative viability (NCI-H1793; first compound 0.4 µM) of 0.272. For the same compound, the relative viability (NCI-H1793; first compound 4 µM) was 0.273, the relative viability (NCI-H1944; first compound 0.04 µM) was 0.191 and the relative viability (NCI-H1944; first compound 0.1265 µM) was 0.214. For the same compound, the relative viability (NCI-H1944; first compound 0.4 µM) was 0.23, the relative viability (NCI-H1944; first compound 4 µM) was 0.215 and the relative viability (NCI-H2087; first compound 0.04 µM) was 0.458. It also gave a relative viability (NCI-H2087; first compound 0.1265 µM) of 0.451, a relative viability (NCI-H2087; first compound 0.4 µM) of 0.444 and a relative viability (NCI-H2087; first compound 4 µM) of 0.437. It also gave a relative viability (NCI-H2170; first compound 0.04 µM) of 0.406, a relative viability (NCI-H2170; first compound 0.1265 µM) of 0.43 and a relative viability (NCI-H2170; first compound 0.4 µM) of 0.44. For the same compound, the relative viability (NCI-H2170; first compound 4 µM) was 0.412, the relative viability (NCI-H2228; first compound 0.04 µM) was 0.356 and the relative viability (NCI-H2228; first compound 0.1265 µM) was 0.406. The relative viability (NCI-H2228; first compound 0.4 µM) was 0.287, the relative viability (NCI-H2228; first compound 4 µM) was 0.289 and the relative viability (NCI-H2405; first compound 0.04 µM) was 0.402. For the same compound, the relative viability (NCI-H2405; first compound 0.1265 µM) was 0.411, the relative viability (NCI-H2405; first compound 0.4 µM) was 0.379 and the relative viability (NCI-H2405; first compound 4 µM) was 0.487. It also gave a relative viability (NCI-H3122; first compound 0.04 µM) of 0.409, a relative viability (NCI-H3122; first compound 0.1265 µM) of 0.387 and a relative viability (NCI-H3122; first compound 0.4 µM) of 0.365. It also gave a relative viability (NCI-H3122; first compound 4 µM) of 0.301, a relative viability (NCI-H460; first compound 0.04 µM) of 0.566 and a relative viability (NCI-H460; first compound 0.1265 µM) of 0.488. The relative viability (NCI-H460; first compound 0.4 µM) was 0.605, the relative viability (NCI-H460; first compound 4 µM) was 0.392 and the relative viability (PC-3 [JPC-3]; first compound 0.04 µM) was 0.494. It also gave a relative viability (PC-3 [JPC-3]; first compound 0.1265 µM) of 0.469, a relative viability (PC-3 [JPC-3]; first compound 0.4 µM) of 0.475 and a relative viability (PC-3 [JPC-3]; first compound 4 µM) of 0.488. The relative viability (RERF-LC-KJ; first compound 0.04 µM) was 0.422, the relative viability (RERF-LC-KJ; first compound 0.1265 µM) was 0.368 and the relative viability (RERF-LC-KJ; first compound 0.4 µM) was 0.379. For the same compound, the relative viability (RERF-LC-KJ; first compound 4 µM) was 0.323, the relative viability (UMC-11; first compound 0.04 µM) was 0.363 and the relative viability (UMC-11; first compound 0.1265 µM) was 0.33. The relative viability (UMC-11; first compound 0.4 µM) was 0.338 and the relative viability (UMC-11; first compound 4 µM) was 0.288.
